Values after ≈ are worked out from the molar mass of the structure shown. Values joined by “and” are separate entries in the source; they are usually repeats but may differ in a detail not shown here. Identical values can stand only once. Like-named read-outs stand apart in the source and are kept apart here.
Legend:
[1] = tested on: E. coli anucleate cell strain (SH3210); assay: High throughput anucleate cell assay; format: cell-based, Escherichia coli; settings: screen of small molecule libraries
Procedure: Briefly, E. coli anucleate cell strain (SH3210; ΔtrpR5 his λ pXX747) is used in the assay. […] The anucleated cells thus appear fluorescent in the presence of a fluorescent substrate (e.g., DDOAG) for LacZ. The protocol is summarized as follows: • 1. Prepare overnight culture of E. coli anucleate cell strain (SH3210) from LB-ampicillin plates. • 2. Dilute starter culture 1:1000 with liquid LB treated with 50 mg/ml of ampicillin and incubate for approximately 2.5 hr at 37° C. until approximately 0.1 OD600. • 3. Split diluted culture into wells (200 μL) • i. […] Negative control: 1 μL of DMSO • 4. Incubate diluted culture with compounds for approximately 2.5 hr at 42° C. at 300 rpm in a clear plate. • 5. Incubate cultures on ice for approximately 10 min until condensation on the cover disappears. • 6. Measure absorbance at a wavelength of 595 nm. • 7. In a black 96-well plate, add 80 μL of Z-buffer (600 mM Na2HPO4, 40 mM NaH2PO4, 10 mM KCl, 0.1 MgSO4) to each well pre-loaded with the following reagents: • a. Cell lysis solution called Popculture™ (1:5 Popculture™ to buffer). Popculture™ is a buffered mixture of concentrated detergents. • b. […] Shake for 30 s and measure fluorescence at a wavelength of 659 nm. • 13. Normalize the fluorescence measurements by dividing by OD595.

Vibrio cholerae [2] = assay: MIC micro-dilution; format: cell-based
Procedure: (§1) Luria-Bertani (LB) media (10 g/L tryptone, 10 g/L NaCl, 5 g/L yeast extract, pH 7.0) was used to grow all bacterial strains, except Streptococcus pyogenes. Streptococcus pyogenes was grown in Mueller-Hinton broth containing 5% (v/v) sheep blood. All bacterial cultures were grown at 37° C. All the E. coli strains were grown while shaking at 200 rpm, while clinical pathogens were incubated without shaking.
(§2) The MIC of all the strains was determined in LB media except Streptococcus pyogenes, which was grown in Mueller-Hinton media containing 5% (v/v) sheep blood. The micro-dilution method was utilized in 96-well clear flat-bottom plates (100 μL/well) according to the CLSI guidelines. All strains were grown at 37° C. for 16-18 hours in presence of various concentrations of compound. The MIC was determined by a visual inspection and experiments were performed in triplicate.

Pseudomonas aeruginosa [3] = assay: MIC micro-dilution; format: cell-based
Procedure: as §1, §2

Edwardsiella tarda [4] = assay: MIC micro-dilution; format: cell-based
Procedure: as §1, §2

Salmonella typhimurium [5] = assay: MIC micro-dilution; format: cell-based
Procedure: as §1, §2

Staphylococcus aureus [6] = assay: MIC micro-dilution; format: cell-based
Procedure: as §1, §2

Streptococcus pyogenes [7] = assay: MIC micro-dilution; format: cell-based; settings: Mueller-Hinton media containing 5% (v/v) sheep blood, 37° C., 16-18 hours
Procedure: as §1, §2

Shigella boydii [8] = assay: MIC micro-dilution; format: cell-based; settings: LB media, 37° C., 16-18 hours
Procedure: as §1, §2

Acinetobacter baumannii [9] = assay: MIC micro-dilution; format: cell-based
Procedure: as §1, §2

Morganella morganii [10] = assay: MIC micro-dilution; format: cell-based
Procedure: as §1, §2

Bacillus subtilis 168 = assay: MIC micro-dilution; format: cell-based; settings: Bacillus subtilis, 168
Procedure: as §1, §2

Klebsiella pneumoniae [11] = assay: MIC micro-dilution; format: cell-based
Procedure: as §1, §2

Enterobacter aerogenes [12] = assay: MIC micro-dilution; format: cell-based
Procedure: as §1, §2

[13] = tested on: broad panel of human pathogens; assay: MIC against the panel of pathogens; format: cell-based
Procedure: as §1, §2

Vibrio cholerae [14] = assay: MBC and antibacterial mode; format: cell-based
Procedure: (§3) The antibacterial mode (i.e., bactericidal, bacteriostatic) was determined by calculating the quotient of the MBC and the MIC. Compounds with a quotient >4 are defined as bacteriostatic; if the quotient is lower than 4, compounds are defined as bactericidal. A micro-dilution protocol was used to perform MIC and MBC experiments in triplicate according to the CLSI guidelines. […] The total volume (100 μL) in the wells with no visual growth were plated on 1.5% (w/v) LB agar or 1.5% (w/v) Mueller-Hinton agar with 5% sheep blood and incubated for 22 hours at 37° C.

Pseudomonas aeruginosa [15] = assay: MBC and antibacterial mode; format: cell-based
Procedure: as §3

Edwardsiella tarda [16] = assay: MBC and antibacterial mode; format: cell-based
Procedure: as §3

Salmonella typhimurium [17] = assay: MBC and antibacterial mode; format: cell-based
Procedure: as §3

Staphylococcus aureus [18] = assay: MBC and antibacterial mode; format: cell-based
Procedure: as §3

Streptococcus pyogenes [19] = assay: MBC and antibacterial mode; format: cell-based
Procedure: as §3

Shigella boydii [20] = assay: MBC and antibacterial mode; format: cell-based
Procedure: as §3

Acinetobacter baumannii [21] = assay: MBC and antibacterial mode; format: cell-based
Procedure: as §3

Morganella morganii [22] = assay: MBC and antibacterial mode; format: cell-based
Procedure: as §3

Klebsiella pneumoniae [23] = assay: MBC and antibacterial mode; format: cell-based
Procedure: as §3

Enterobacter aerogenes [24] = assay: MBC and antibacterial mode; format: cell-based
Procedure: as §3

## CCCCCCCCCOc1ccc2[nH]cc(CCN)c2c1 [Compound 1, 5-nonyloxytryptamine]
[1]
  hit in anucleate cell screen: potent hit
Vibrio cholerae [2]
  MIC: 6 µg/mL (≈ 19.8 µM)
Vibrio cholerae [2]; LB media, 37° C., 16-18 hours
  MIC: 6.0 µg/mL (≈ 19.8 µM)
Pseudomonas aeruginosa [3]
  MIC: 80 µM and 24 µg/mL
Edwardsiella tarda [4]
  MIC: 6 µg/mL (≈ 19.8 µM)
Edwardsiella tarda [4]; LB media, 37° C., 16-18 hours
  MIC: 6.0 µg/mL (≈ 19.8 µM)
Salmonella typhimurium [5]; Salmonella enterica, TYPHIMURIUM
  MIC: 6 µg/mL (≈ 19.8 µM)
Salmonella typhimurium [5]; Salmonella typhimurium, LB media, 37° C., 16-18 hours
  MIC: 6.0 µg/mL (≈ 19.8 µM)
Staphylococcus aureus [6]
  MIC: 3 µg/mL (≈ 9.92 µM)
Staphylococcus aureus [6]; LB media, 37° C., 16-18 hours
  MIC: 3.0 µg/mL (≈ 9.92 µM)
Streptococcus pyogenes [7]
  MIC: 24 µg/mL (≈ 79.3 µM)
Shigella boydii [8]
  MIC: 6.0 µg/mL (≈ 19.8 µM)
Shigella boydii [8]; read-out: MIC
  MIC: 6 µg/mL (≈ 19.8 µM)
Acinetobacter baumannii [9]
  MIC: 6 µg/mL (≈ 19.8 µM)
Acinetobacter baumannii [9]; LB media, 37° C., 16-18 hours
  MIC: 6.0 µg/mL (≈ 19.8 µM)
Morganella morganii [10]
  MIC: 12 µg/mL (≈ 39.7 µM)
Bacillus subtilis 168
  MIC: 0.76 µg/mL (≈ 2.51 µM)
Klebsiella pneumoniae [11]
  MIC: 6 µg/mL (≈ 19.8 µM)
Klebsiella pneumoniae [11]; LB media, 37° C., 16-18 hours
  MIC: 6.0 µg/mL (≈ 19.8 µM)
Enterobacter aerogenes [12]; Enterobacter aerogenes, LB media, 37° C., 16-18 hours
  MIC: 6.0 µg/mL (≈ 19.8 µM)
Enterobacter aerogenes [12]; Klebsiella aerogenes
  MIC: 6 µg/mL (≈ 19.8 µM)
[13]; Pseudomonas aeruginosa
  MIC: 5 to 20 µM
[13]; against the pathogens tested, except Pseudomonas aeruginosa, read-out: MIC
  MIC: 3 to 12 µg/mL
Vibrio cholerae [14]
  Antibacterial Mode: Bacteriostatic (Compounds with a quotient >4 are defined as bacteriostatic)
  MBC: 24 µg/mL (≈ 79.3 µM)
  MBC/MIC: 4
Pseudomonas aeruginosa [15]
  Antibacterial Mode: Bacteriostatic (Compounds with a quotient >4 are defined as bacteriostatic)
  MBC: 96 µg/mL (≈ 317 µM)
  MBC/MIC: 4
Edwardsiella tarda [16]
  Antibacterial Mode: Bactericidal (if the quotient is lower than 4, compounds are defined as bactericidal)
  MBC: 12 µg/mL (≈ 39.7 µM)
  MBC/MIC: 2
Salmonella typhimurium [17]
  Antibacterial Mode: Bacteriostatic (Compounds with a quotient >4 are defined as bacteriostatic)
  MBC/MIC: 4
Salmonella typhimurium [17]; Salmonella enterica
  MBC: 24 µg/mL (≈ 79.3 µM)
Staphylococcus aureus [18]
  Antibacterial Mode: Bactericidal (if the quotient is lower than 4, compounds are defined as bactericidal)
  MBC: 6 µg/mL (≈ 19.8 µM)
  MBC/MIC: 2
Streptococcus pyogenes [19]
  Antibacterial Mode: Bactericidal (if the quotient is lower than 4, compounds are defined as bactericidal)
  MBC: 24 µg/mL (≈ 79.3 µM)
  MBC/MIC: 1
Shigella boydii [20]
  Antibacterial Mode: Bactericidal (if the quotient is lower than 4, compounds are defined as bactericidal)
  MBC: 6 µg/mL (≈ 19.8 µM)
  MBC/MIC: 1
Acinetobacter baumannii [21]
  Antibacterial Mode: Bactericidal (if the quotient is lower than 4, compounds are defined as bactericidal)
  MBC: 6 µg/mL (≈ 19.8 µM)
  MBC/MIC: 1
Morganella morganii [22]
  Antibacterial Mode: Bactericidal (if the quotient is lower than 4, compounds are defined as bactericidal)
  MBC: 24 µg/mL (≈ 79.3 µM)
  MBC/MIC: 2
Klebsiella pneumoniae [23]
  Antibacterial Mode: Bactericidal (if the quotient is lower than 4, compounds are defined as bactericidal)
  MBC: 6 µg/mL (≈ 19.8 µM)
  MBC/MIC: 1
Enterobacter aerogenes [24]
  Antibacterial Mode: Bacteriostatic (Compounds with a quotient >4 are defined as bacteriostatic)
  MBC/MIC: >4
Enterobacter aerogenes [24]; Klebsiella aerogenes
  MBC: > 96 µg/mL
